Laboratory results: ChEMBL document CHEMBL1201862, “PubChem BioAssay data set” (2004)
Calls of active or inactive are those of the source.

Experiments:
[1] = biological target: Dual specificity tyrosine-phosphorylation-regulated kinase 1A (Rattus norvegicus, UniProt Q63470); assay type: biochemical, Homo sapiens
[2] = system: Streptococcus; assay: Group A Streptococcus viability loss, dose response, counter-screen for streptokinase expression inhibitor project, luminescence, BacTiterGlo (AID 1915); assay type: functional, organism-based;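 note: potency for reduction of bacterial viability or growth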
[3] = biological target: T1, Streptokinase A (Streptococcus pyogenes serotype M1, UniProt P10520); assay: S. pyogenes streptokinase expression inhibitors, potency, dose response, plasminogen activation absorbance, OD405 (AID 1914); assay type: functional, Streptococcus pyogenes M1 GAS;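 note: secreted streptokinase activity via plasminogen activation per viability signal from cell pellet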
T1 sequence (P10520 whole entry): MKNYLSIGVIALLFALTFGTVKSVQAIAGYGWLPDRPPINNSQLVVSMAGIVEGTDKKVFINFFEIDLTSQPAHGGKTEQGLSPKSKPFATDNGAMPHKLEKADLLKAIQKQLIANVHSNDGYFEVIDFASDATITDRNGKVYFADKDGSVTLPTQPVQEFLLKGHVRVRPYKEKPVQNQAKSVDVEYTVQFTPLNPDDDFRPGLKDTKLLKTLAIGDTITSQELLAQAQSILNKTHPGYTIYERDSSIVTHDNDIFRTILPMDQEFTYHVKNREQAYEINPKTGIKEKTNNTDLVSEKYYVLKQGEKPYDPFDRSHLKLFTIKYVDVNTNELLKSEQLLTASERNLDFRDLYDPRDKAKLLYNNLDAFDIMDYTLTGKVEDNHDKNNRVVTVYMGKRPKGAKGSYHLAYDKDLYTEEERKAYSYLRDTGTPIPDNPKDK

[4] = system: Streptococcus sp. 'group A'; assay: growth inhibition of control SK(-) GAS strain, dose response, counter-screen for streptokinase expression inhibitor project, luminescence, kanamycin, BacTiterGlo, confirmation (AID 1900); assay type: functional, organism-based
[5] = Luminescence Cell-Based Dose Retest to Confirm Inhibitors of Cancer Stem Cells. [Related pubchem assays (depositor defined):AID2717, AID2721]; assay type: functional; settings: Homo sapiens
[6] = cytotoxicity in HMLE control line with eGFP shRNA, dose response, counter-screen for HMLE_sh_ECad selective toxicity project, cell-based, HMLE_sh_eGFP, luminescence (AID 463074); assay type: functional, Homo sapiens;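 note: HMLE human mammary epithelial cells expressing control shRNA against eGFP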
[7] = biological target: 5-hydroxytryptamine receptor 5A (Homo sapiens, UniProt P47898); assay: Counterscreen for agonists of OPRM1-OPRD1 heterodimerization: luminescence-based cell-based high throughput dose response assay to identify agonists of 5-hydroxytryptamine (serotonin) 5A receptor (HTR5A). [Related pubchem assays (depositor defined):AID504326, AID504355, AID504692, AID504904, AID504905]; assay type: functional
[8] = HepG2 cell cytotoxicity, dose response, cytotoxicity control for Shn3 inhibitor project, CellTiter-Glo, cherry-picked (AID 624134); assay type: functional, cell-based
[9] = Shn3 3'UTR reporter inhibitors, dose response, cell-based, Clone20 osteoblasts, firefly luciferase, cherry-picked (AID 624132); assay type: functional;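 note: firefly luciferase luminescence from reporter carrying the Shn3 3'UTR in osteoblasts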
[10] = biological target: Mu-type opioid receptor (Homo sapiens, UniProt P35372); assay: (§1) Counterscreen for agonists of heterodimerization of the mu 1 (OPRM1) and delta 1 (OPRD1) opioid receptors: Luminescence-based cell-based high throughput dose response assay to identify agonists of OPRM1 homodimerization.; assay type: functional
[11] = biological target: Delta-type opioid receptor (Homo sapiens, UniProt P41143); assay: as §1, with “of OPRD1” for “of OPRM1”, “homodimerization. [Related pubchem assays (depositor defined):AID504326, AID504355, AID504692, AID504904, AID504905]” for “homodimerization.”; assay type: functional
[12] = biological target: Glucose-6-phosphate 1-dehydrogenase (Homo sapiens, UniProt P11413); assay: human G6PD enzyme inhibitors, dose response, selectivity assay for P. falciparum G6PD inhibitor project, biochemical, fluorescence (AID 504792); assay type: functional
[13] = control 3'UTR Renilla luciferase suppression, dose response, counter-screen for Shn3 inhibitor project, cell-based, Clone20-Shn3RL, cherry-picked (AID 624133); assay type: functional
[14] = biological target: T2, High affinity choline transporter 1 (Homo sapiens, UniProt Q9GZV3); assay: CHT inhibitors, dose response, cell-based, 5-point CRC, membrane potential dye (AID 504840); assay type: functional
T2 sequence (Q9GZV3 whole entry): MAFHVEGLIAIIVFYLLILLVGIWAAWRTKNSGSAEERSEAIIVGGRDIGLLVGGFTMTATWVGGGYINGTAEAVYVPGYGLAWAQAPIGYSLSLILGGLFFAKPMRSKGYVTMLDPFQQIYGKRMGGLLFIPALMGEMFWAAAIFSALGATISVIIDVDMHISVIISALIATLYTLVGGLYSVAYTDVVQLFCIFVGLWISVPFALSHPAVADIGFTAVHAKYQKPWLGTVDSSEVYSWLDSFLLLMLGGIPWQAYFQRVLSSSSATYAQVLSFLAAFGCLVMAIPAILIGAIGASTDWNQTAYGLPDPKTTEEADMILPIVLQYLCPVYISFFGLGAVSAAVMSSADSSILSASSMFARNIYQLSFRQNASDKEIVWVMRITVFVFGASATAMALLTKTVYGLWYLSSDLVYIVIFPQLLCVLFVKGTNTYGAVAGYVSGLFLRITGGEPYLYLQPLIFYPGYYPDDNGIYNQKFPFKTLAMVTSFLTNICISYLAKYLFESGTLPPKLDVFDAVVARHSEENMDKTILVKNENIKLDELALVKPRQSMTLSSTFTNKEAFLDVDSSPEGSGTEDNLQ

[15] = biological target: T3, Long-chain-fatty-acid--AMP ligase FadD28 (Mycobacterium tuberculosis, UniProt P9WQ59); assay: Fluorescence polarization aasay to screen for inhibitors that compete for the binding of FadD28 to a bisubstrate Measured in Biochemical System Using Plate Reader - 2147-01_Inhibitor_Dose_CherryPick_Activity.; assay type: functional, Mycobacterium tuberculosis H37Rv
T3 sequence (P9WQ59 whole entry): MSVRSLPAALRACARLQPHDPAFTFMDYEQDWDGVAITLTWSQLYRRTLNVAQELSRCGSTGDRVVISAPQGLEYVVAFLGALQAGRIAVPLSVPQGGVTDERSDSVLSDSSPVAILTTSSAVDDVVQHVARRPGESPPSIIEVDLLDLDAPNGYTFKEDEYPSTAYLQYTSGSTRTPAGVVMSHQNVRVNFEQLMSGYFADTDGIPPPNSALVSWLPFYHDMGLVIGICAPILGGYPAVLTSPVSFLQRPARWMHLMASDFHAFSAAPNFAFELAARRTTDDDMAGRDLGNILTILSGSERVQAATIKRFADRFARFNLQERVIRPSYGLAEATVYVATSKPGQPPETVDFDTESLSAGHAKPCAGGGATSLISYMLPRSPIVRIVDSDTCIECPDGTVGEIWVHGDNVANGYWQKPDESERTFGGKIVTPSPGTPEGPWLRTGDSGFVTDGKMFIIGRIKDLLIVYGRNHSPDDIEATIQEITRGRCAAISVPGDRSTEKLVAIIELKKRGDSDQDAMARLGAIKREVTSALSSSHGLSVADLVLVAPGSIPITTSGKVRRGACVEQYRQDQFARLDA

[16] = biological target: T4, Rac GTPase-activating protein 1 (Homo sapiens, UniProt Q9H0H5); assay: MgcRacGAP GTPase-activating activity inhibitors, confirmation, biochemical, ADP Hunter fluorescence, primary and confirmatory (AID 624330); assay type: functional
T4 sequence (Q9H0H5 whole entry): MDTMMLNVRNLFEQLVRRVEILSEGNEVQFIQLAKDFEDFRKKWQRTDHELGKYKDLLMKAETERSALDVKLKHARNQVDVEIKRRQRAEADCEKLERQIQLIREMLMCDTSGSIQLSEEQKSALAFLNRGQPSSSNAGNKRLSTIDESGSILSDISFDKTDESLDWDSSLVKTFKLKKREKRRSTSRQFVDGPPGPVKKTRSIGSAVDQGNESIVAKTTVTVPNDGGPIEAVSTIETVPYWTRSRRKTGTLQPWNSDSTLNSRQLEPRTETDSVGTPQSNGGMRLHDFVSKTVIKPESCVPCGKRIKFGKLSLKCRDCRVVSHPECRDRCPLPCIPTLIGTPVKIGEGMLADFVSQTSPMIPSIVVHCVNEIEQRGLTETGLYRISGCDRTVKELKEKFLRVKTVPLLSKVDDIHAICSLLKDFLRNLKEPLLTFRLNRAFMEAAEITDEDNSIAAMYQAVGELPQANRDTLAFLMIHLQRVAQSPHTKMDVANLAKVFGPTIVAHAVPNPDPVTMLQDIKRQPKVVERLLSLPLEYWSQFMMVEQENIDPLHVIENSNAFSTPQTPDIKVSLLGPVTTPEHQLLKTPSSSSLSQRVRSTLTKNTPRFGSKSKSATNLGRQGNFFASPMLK

[17] = biological target: Large T antigen (Simian virus 40, UniProt P03070); assay type: functional, Betapolyomavirus macacae;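 note: Confirmatory-stage PubChem screen for compounds that inhibit SV40 T antigen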
Sequence of Large T antigen (P03070 whole entry): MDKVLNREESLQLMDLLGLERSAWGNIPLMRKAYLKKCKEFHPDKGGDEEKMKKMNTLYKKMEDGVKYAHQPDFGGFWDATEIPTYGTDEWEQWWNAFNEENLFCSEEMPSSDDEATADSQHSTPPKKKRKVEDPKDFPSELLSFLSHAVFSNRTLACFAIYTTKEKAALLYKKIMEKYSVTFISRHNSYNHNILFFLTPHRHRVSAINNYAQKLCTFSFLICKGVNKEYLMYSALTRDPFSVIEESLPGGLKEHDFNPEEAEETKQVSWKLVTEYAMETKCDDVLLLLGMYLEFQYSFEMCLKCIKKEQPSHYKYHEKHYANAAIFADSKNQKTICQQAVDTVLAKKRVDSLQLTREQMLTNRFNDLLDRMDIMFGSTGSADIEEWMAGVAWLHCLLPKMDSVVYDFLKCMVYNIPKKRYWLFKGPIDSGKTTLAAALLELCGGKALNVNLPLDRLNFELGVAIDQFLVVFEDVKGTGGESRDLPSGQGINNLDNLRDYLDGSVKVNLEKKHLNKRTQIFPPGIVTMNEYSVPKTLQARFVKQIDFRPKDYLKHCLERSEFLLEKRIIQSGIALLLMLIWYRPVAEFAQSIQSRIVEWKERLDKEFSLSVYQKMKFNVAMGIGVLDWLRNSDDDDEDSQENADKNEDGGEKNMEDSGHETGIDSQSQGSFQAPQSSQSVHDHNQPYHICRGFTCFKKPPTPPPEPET

Sequence of Glucose-6-phosphate 1-dehydrogenase (P11413 whole entry): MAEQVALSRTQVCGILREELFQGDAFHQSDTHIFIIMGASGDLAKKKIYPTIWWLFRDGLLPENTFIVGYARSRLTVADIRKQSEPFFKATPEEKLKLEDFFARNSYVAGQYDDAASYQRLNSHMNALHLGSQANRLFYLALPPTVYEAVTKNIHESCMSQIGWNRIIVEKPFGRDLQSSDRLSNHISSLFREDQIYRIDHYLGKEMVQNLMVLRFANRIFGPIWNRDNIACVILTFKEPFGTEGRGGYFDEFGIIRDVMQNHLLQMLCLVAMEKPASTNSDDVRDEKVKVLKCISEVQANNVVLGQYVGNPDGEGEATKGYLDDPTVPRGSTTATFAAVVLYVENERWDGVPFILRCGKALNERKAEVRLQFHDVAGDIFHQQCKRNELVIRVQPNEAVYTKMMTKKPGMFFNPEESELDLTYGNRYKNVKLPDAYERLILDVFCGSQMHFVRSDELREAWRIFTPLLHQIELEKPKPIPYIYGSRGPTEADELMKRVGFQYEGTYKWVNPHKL
Sequence of Delta-type opioid receptor (P41143 whole entry): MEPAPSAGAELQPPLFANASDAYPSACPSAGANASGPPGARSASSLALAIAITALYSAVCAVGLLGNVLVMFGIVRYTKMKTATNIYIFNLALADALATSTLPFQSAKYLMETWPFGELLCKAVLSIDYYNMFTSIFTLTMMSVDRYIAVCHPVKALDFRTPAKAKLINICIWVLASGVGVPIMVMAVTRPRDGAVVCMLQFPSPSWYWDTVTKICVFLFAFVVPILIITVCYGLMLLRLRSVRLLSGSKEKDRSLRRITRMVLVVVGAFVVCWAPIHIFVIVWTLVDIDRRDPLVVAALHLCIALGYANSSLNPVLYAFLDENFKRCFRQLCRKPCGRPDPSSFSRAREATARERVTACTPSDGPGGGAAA
Sequence of 5-hydroxytryptamine receptor 5A (P47898 whole entry): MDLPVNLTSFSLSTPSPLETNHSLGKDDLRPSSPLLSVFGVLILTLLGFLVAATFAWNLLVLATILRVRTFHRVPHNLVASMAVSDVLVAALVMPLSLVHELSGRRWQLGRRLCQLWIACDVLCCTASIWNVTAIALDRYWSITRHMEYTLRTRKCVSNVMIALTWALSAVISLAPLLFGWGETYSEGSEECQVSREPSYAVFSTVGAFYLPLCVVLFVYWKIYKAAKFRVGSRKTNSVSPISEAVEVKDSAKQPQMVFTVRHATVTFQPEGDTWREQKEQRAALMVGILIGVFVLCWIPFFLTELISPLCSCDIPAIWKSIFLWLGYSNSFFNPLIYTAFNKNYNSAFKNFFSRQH
Sequence of Mu-type opioid receptor (P35372 whole entry): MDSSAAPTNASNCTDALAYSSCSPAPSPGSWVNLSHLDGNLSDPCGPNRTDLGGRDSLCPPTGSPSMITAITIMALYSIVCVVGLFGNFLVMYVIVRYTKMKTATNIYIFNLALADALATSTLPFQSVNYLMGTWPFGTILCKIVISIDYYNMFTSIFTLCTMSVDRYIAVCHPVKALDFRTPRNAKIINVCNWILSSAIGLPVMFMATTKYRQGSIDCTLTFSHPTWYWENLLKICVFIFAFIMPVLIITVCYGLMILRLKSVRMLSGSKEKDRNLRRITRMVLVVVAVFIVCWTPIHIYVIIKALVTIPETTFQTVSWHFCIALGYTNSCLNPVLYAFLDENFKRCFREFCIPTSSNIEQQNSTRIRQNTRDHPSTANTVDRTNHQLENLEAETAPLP

Q: With `Nc1nc2cc([N+](=O)[O-])ccc2[nH]1` as the compound, how does the AC50 [1] read?
A: 7.07 µM (active)

Q: For `O=C(CSc1nnc(-c2ccc3c(c2)OCO3)o1)Nc1ncc(C(F)(F)F)cc1Cl`, which EC50 [2] is on record?
A: 20.4 µM (active)

Q: What about the EC50 [3] of the same compound?
A: > 150 µM (not active)

Q: And the EC50 [4]?
A: 1.16 µM (active)

Q: And the AC50 [5]?
A: 5.84 µM (active)

Q: And the AC50 [6]?
A: 28.5 µM (active)

Q: With `COC(=O)c1cc2c(n1S(=O)(=O)c1ccc(C)cc1)C(=O)C(=O)c1[nH]cc(C(=O)OCc3ccccc3)c1-2` as the compound, how does the EC50 [7] read?
A: > 92.4 µM (inactive)

Q: What about the AC50 [8] of the same compound?
A: 1.94 µM (active)

Q: What about the AC50 [9] of the same compound?
A: 1.2 µM (active)

Q: What about the EC50 [10] of the same compound?
A: > 92.4 µM (inactive)

Q: And the EC50 [11]?
A: > 92.4 µM (inactive)

Q: What about the IC50 [12] of the same compound?
A: > 80 µM (inactive)

Q: And the AC50 [13]?
A: 1.64 µM (active)

Q: For `CCN1CCN(c2ncnc3scc(-c4ccc(OC)cc4)c23)CC1`, which IC50 [14] is on record?
A: 12.9 µM (active)

Q: Which results are given for `Oc1ccc(/C=N/n2c(S)nnc2C2CCCCC2)c(O)c1`?
A: AC50 [15]: 48.8 µM (active); AC50 [1]: 0.93 µM (active)

Q: For `Cc1cc(/C=N/NC(=O)C(=O)N2CCCC2)c(C)n1-c1cccc(Br)c1`, which IC50 [14] is on record?
A: 13.8 µM (active)

Q: For `CC(/C=C/c1ccc(O)cc1)=N/O`, which IC50 [16] is on record?
A: 10.5 µM (active)

Q: And the AC50 [1]?
A: 1.54 µM (active)

Q: What about the IC50 [17] of the same compound?
A: 8.82 µM (active)
